# Patent US7381746B2, “2-Aminobicyclo[3.1.0]hexane-2,6-dicarboxylic acid derivative” (Taisho Pharmaceutical Co., Ltd., priority 2003, dated 2008)
row,SMILES,melting point
1,"N[C@]1(C(=O)O)[C@H]2[C@@H](C[C@H]1SCc1cccs1)[C@]2(F)C(=O)O [Compound 1, (1R,2S,3R,5R,6R)-2-amino-3-(thiophene-2-ylmethylsulfanyl)-6-fluorobicyclo[3.1.0]hexane-2,6-dicarboxylic acid]",> 230 °C
2,"CC(C)(C)c1ccc(CS[C@@H]2C[C@@H]3[C@H]([C@]2(N)C(=O)O)[C@@]3(F)C(=O)O)cc1 [Compound 5, (1R,2S,3R,5R,6R)-2-amino-3-(4-t-butylbenzylsulfanyl)-6-fluorobicyclo[3.1.0]hexane-2,6-dicarboxylic acid]",> 271 °C
3,"N[C@]1(C(=O)O)[C@H]2[C@@H](C[C@H]1SCc1ccc(Cl)c(Cl)c1)[C@]2(F)C(=O)O [Compound 9, (1R,2S,3R,5R,6R)-2-amino-3-(3,4-dichlorobenzylsulfanyl)-6-fluorobicyclo[3.1.0]hexane-2,6-dicarboxylic acid]",> 220 °C
4,"N[C@]1(C(=O)O)[C@H]2[C@@H](C[C@H]1SCc1ccc3ccccc3c1Br)[C@]2(F)C(=O)O [Compound 7, (1R,2S,3R,5R,6R)-2-amino-3-(1-bromo-naphthalene-2-ylmethylsulfanyl)-6-fluorobicyclo[3.1.0]hexane-2,6-dicarboxylic acid]",> 280 °C
5,"COc1ccc(CS[C@@H]2C[C@@H]3[C@H]([C@]2(N)C(=O)O)[C@@]3(F)C(=O)O)cc1 [Compound 3, (1R,2S,3R,5R,6R)-2-amino-3-(4-methoxybenzylsulfanyl)-6-fluorobicyclo[3.1.0]hexane-2,6-dicarboxylic acid]",> 240 °C
6,"N[C@]1(C(=O)O)[C@H]2[C@@H](C[C@H]1SCc1ccccc1-c1ccccc1)[C@]2(F)C(=O)O [Compound 2, (1R,2S,3R,5R,6R)-2-amino-3-(2-phenylbenzylsulfanyl)-6-fluorobicyclo[3.1.0]hexane-2,6-dicarboxylic acid]",> 230 °C
7,"N[C@]1(C(=O)O)[C@H]2[C@@H](C[C@H]1SCc1ccc(F)cc1)[C@]2(F)C(=O)O [Compound 4, (1R,2S,3R,5R,6R)-2-amino-3-(4-fluorobenzylsulfanyl)-6-fluorobicyclo[3.1.0]hexane-2,6-dicarboxylic acid]",> 243 °C
8,"N[C@]1(C(=O)O)[C@H]2[C@@H](C[C@H]1SCc1cccc(C(F)(F)F)c1)[C@]2(F)C(=O)O [Compound 6, (1R,2S,3R,5R,6R)-2-amino-3-(3-trifluoromethylbenzylsulfanyl)-6-fluorobicyclo[3.1.0]hexane-2,6-dicarboxylic acid]",> 271 °C
9,"N[C@]1(C(=O)O)[C@@H]2[C@@H](C[C@H]1SCc1ccc(Cl)c(Cl)c1)[C@H]2C(=O)O [Compound 8, (1R,2S,3R,5R,6R)-2-amino-3-(3,4-dichlorobenzylsulfanyl)-bicyclo[3.1.0]hexane-2,6-dicarboxylic acid]",> 289 °C

# The next lines start with the values.
row,melting point,SMILES
1,> 307 °C,"CC(S[C@@H]1C[C@@H]2[C@H]([C@]1(N)C(=O)O)[C@@]2(F)C(=O)O)c1ccccc1 (stereo partly drawn) [Compound 15, (1R,2S,3R,5R,6R)-2-amino-3-(1-phenyl-ethylsulfanyl)-6-fluorobicyclo[3.1.0]hexane-2,6-dicarboxylic acid]"
2,> 234 °C,"N[C@]1(C(=O)O)[C@H]2[C@@H](C[C@H]1SCc1c(F)ccc(Cl)c1F)[C@]2(F)C(=O)O [Compound 13, (1R,2S,3R,5R,6R)-2-amino-3-(3-chloro-2,6-difluorobenzylsulfanyl)-6-fluorobicyclo[3.1.0]hexane-2,6-dicarboxylic acid]"
3,> 256 °C,"N[C@@H]1C[C@@H]2[C@H]([C@]1(N)C(=O)O)[C@@]2(F)C(=O)O [Compound 17, (1R,2R,3R,5R,6R)-2,3-diamino-6-fluorobicyclo[3.1.0]hexane-2,6-dicarboxylic acid]"
4,> 243 °C,"N[C@]1(C(=O)O)[C@H]2[C@@H](C[C@H]1SC(c1ccc(F)cc1)c1ccc(F)cc1)[C@]2(F)C(=O)O [Compound 16, (1R,2S,3R,5R,6R)-2-amino-3-[bis-(4-fluorophenyl)methylsulfanyl]-6-fluorobicyclo[3.1.0]hexane-2,6-dicarboxylic acid]"
5,> 190 °C,"N[C@]1(C(=O)O)[C@H]2[C@@H](C[C@H]1NCc1ccc(Cl)c(Cl)c1)[C@]2(F)C(=O)O [Compound 18, (1R,2R,3R,5R,6R)-2-amino-3-(3,4-dichlorobenzylamino)-6-fluorobicyclo[3.1.0]hexane-2,6-dicarboxylic acid]"
6,> 235 °C,"N[C@]1(C(=O)O)[C@H]2[C@@H](C[C@H]1Sc1ccc(Cl)c(Cl)c1)[C@]2(F)C(=O)O [Compound 12, (1R,2S,3R,5R,6R)-2-amino-3-(3,4-dichlorophenylsulfanyl)-6-fluorobicyclo[3.1.0]hexane-2,6-dicarboxylic acid]"
